# Data from patent US4323567A, “Arylmalonamido-1-oxadethiacephalosporins” (priority 1976, dated 1982).
# Where two headings read alike, the source gives them in different places.
# Tests used:
# Assay in all cases: Minimal inhibitory concentration, nutrient agar plate
# Ps. aeruginosa 24 = type: cell-based, Pseudomonas aeruginosa; settings: Pseudomonas aeruginosa, 24, inoculum size 10^8, pH 7.0, read-out: Minimal inhibitory concentration
# Klebsiella sp. 363 = type: cell-based; settings: inoculum size 10^8, pH 7.0, read-out: Minimal inhibitory concentration
# Enterobacter cloacae 233 = type: cell-based; settings: Enterobacter cloacae, 233, inoculum size 10^8, pH 7.0, read-out: Minimal inhibitory concentration
# P. vulgaris No. 3 = type: cell-based; settings: Proteus vulgaris, NO.3, inoculum size 10^8, pH 7.0, read-out: Minimal inhibitory concentration
# Klebsiella pneumoniae = type: cell-based; settings: inoculum size 10^8, pH 7.0, read-out: Minimal inhibitory concentration
# [1] = tested on: Pseudomonas aeruginosa Denken; type: cell-based; settings: inoculum size 10^8, pH 7.0, read-out: Minimal inhibitory concentration
# P. vulgaris CN-329 = type: cell-based; settings: Proteus vulgaris, CN329, inoculum size 10^8, pH 7.0, read-out: Minimal inhibitory concentration
# Proteus mirabilis PR-4 = type: cell-based; settings: inoculum size 10^8, pH 7.0, read-out: Minimal inhibitory concentration
# E. coli 377 = type: cell-based, Escherichia coli; settings: Escherichia coli, 377, inoculum size 10^8, pH 7.0, read-out: Minimal inhibitory concentration
# P. morganii No. 9 = type: cell-based, Proteus morganii; settings: Morganella morganii, NO.9, inoculum size 10^8, pH 7.0, read-out: Minimal inhibitory concentration
# E. coli JC-2 = type: cell-based; settings: Escherichia coli, JC2, inoculum size 10^8, pH 7.0, read-out: Minimal inhibitory concentration
# Escherichia coli H = type: cell-based; settings: inoculum size 10^8, pH 7.0, read-out: Minimal inhibitory concentration
# Ps. aeruginosa 25619 = type: cell-based, Pseudomonas aeruginosa; settings: Pseudomonas aeruginosa, 25619, inoculum size 10^8, pH 7.0, read-out: Minimal inhibitory concentration
# E. coli 73 = type: cell-based, Escherichia coli; settings: Escherichia coli, 73, inoculum size 10^8, pH 7.0, read-out: Minimal inhibitory concentration
# [2] = tested on: Serratia marsescens 13880; type: cell-based; settings: Serratia, 13880, inoculum size 10^8, pH 7.0, read-out: Minimal inhibitory concentration
# [3] = ester, in the presence of 5% horse serum, sodium salt
# [4] = SP.363, ester, in the presence of 5% horse serum, sodium salt
# [5] = PR4, ester, in the presence of 5% horse serum, sodium salt
SMILES,MIC (Ps. aeruginosa 24; as sodium salt) [µg/mL],"MIC (Klebsiella sp. 363; SP.363, as sodium salt) [µg/mL]",MIC (Enterobacter cloacae 233; as sodium salt) [µg/mL],MIC (P. vulgaris No. 3; as sodium salt) [µg/mL],MIC (Klebsiella pneumoniae; as sodium salt) [µg/mL],MIC ([1]; as sodium salt) [µg/mL],MIC (P. vulgaris CN-329; as sodium salt) [µg/mL],"MIC (Proteus mirabilis PR-4; PR4, as sodium salt) [µg/mL]",MIC (E. coli 377; as sodium salt) [µg/mL],MIC (P. morganii No. 9; as sodium salt) [µg/mL],MIC (E. coli JC-2; as sodium salt) [µg/mL],MIC (Escherichia coli H; as sodium salt) [µg/mL],MIC (Ps. aeruginosa 25619; as sodium salt) [µg/mL],MIC (E. coli 73; as sodium salt) [µg/mL],MIC ([2]; as sodium salt) [µg/mL],MIC (Ps. aeruginosa 24; [3]) [µg/mL],MIC (Klebsiella sp. 363; [4]) [µg/mL],MIC (Enterobacter cloacae 233; [3]) [µg/mL],MIC (P. vulgaris No. 3; [3]) [µg/mL],MIC (Klebsiella pneumoniae; [3]) [µg/mL],also measured
"CO[C@@]1(NC(=O)C(C(=O)O)c2ccc(OC(C)=O)cc2)C(=O)N2C(C(=O)O)=C(CSc3nnnn3C)CO[C@@H]21 (stereo partly drawn) [III-14, 7β-(α-carboxy-α-p-acetoxyphenylacetamido)-7α-methoxy-3-(1-methyltetrazol-5-yl)thiomethyl-1-oxadethia-3-cephem-4-carboxylic acid]",100,0.78,0.78,0.39,0.39,> 100,0.2,0.2,1.56,0.39,0.39,0.2,25,1.56,,,,,,,
"CO[C@@]1(NC(=O)C(C(=O)O)c2ccc(O)cc2)C(=O)N2C(C(=O)O)=C(CSc3nnnn3C)CO[C@@H]21 (stereo partly drawn) [III-15, 7β-(α-carboxy-α-p-hydroxyphenylacetamido)-7α-methoxy-3-(1-methyltetrazol-5-yl)thiomethyl-1-oxadethia-3-cephem-4-carboxylic acid]",50,0.1,,0.39,0.2,100,0.39,0.39,0.39,0.39,0.02,0.1,6.25,0.78,1.56,,,,,,
"CO[C@@]1(NC(=O)C(C(=O)Oc2ccc3c(c2)CCC3)c2ccc(O)cc2)C(=O)N2C(C(=O)O)=C(CSc3nnnn3C)CO[C@@H]21 (stereo partly drawn) [III-16, 7β-[α-P-hydroxyphenyl-α-(5-indanyl)oxycarvonylacetamido]-7β-methoxy-3-(1-methyltetrazol-5-yl)thiomethyl-1-oxadethia-3-cephem-4-carboxylic acid]",,,,,,,,,,,,,,,,25,0.2,0.39,0.39,0.2,"MIC [1, 3]: 100 µg/mL; MIC (P. vulgaris CN-329; [3]): 0.78 µg/mL; MIC (Proteus mirabilis PR-4; [5]): 0.39 µg/mL; MIC (E. coli 377; [3]): 0.2 µg/mL; MIC (P. morganii No. 9; [3]): 0.2 µg/mL; MIC (E. coli JC-2; [3]): 0.02 µg/mL; MIC (Escherichia coli H; [3]): 0.1 µg/mL; MIC (Ps. aeruginosa 25619; [3]): 12.5 µg/mL; MIC (E. coli 73; [3]): 0.78 µg/mL; MIC [2, 3]: 0.39 µg/mL"
"CO[C@@]1(NC(=O)C(C(=O)O)c2ccsc2)C(=O)N2C(C(=O)O)=C(CSc3nnnn3C)CO[C@@H]21 (stereo partly drawn) [III-19, 7β-[α-(3-thienyl)-α-carboxyacetamido]-7α-methoxy-3-(1-methyltetrazol-5-yl)thiomethyl-1-oxadethia-3-cephem-4-carboxylic acid]",50,0.05,0.1,0.2,0.2,100,0.1,0.2,0.1,0.1,0.05,0.025,12.5,0.2,0.39,,,,,,
"CO[C@@]1(NC(=O)C(C(=O)O)c2cccs2)C(=O)N2C(C(=O)O)=C(CSc3nnnn3C)CO[C@@H]21 (stereo partly drawn) [III-23, 7β-[α-carboxy-α-(2-theinyl)acetamido]-7α-methoxy-3-(1-methyltetrazol-5-yl)thiomethyl-1-oxadethia-3-cephem-4-carboxylic acid]",50,0.1,0.2,,0.05,100,0.1,0.1,0.39,0.1,0.05,0.025,12.5,0.2,0.39,,,,,,
"CO[C@@]1(NC(=O)C(C(=O)Oc2ccc3c(c2)CCC3)c2ccccc2)C(=O)N2C(C(=O)O)=C(CSc3nnnn3C)CO[C@@H]21 (stereo partly drawn) [III-24, 7β-[α-(indan-5-yl)oxycarbonyl-α-phenylacetamido]-7α-methoxy-3-(1-methyltetrazol-5-yl)thiomethyl-1-oxadethia-3-cephem-4-carboxylic acid]",,,,,,,,,,,,,,,,50,0.05,0.2,0.39,0.1,"MIC [1, 3]: 100 µg/mL; MIC (P. vulgaris CN-329; [3]): 0.1 µg/mL; MIC (Proteus mirabilis PR-4; [5]): 0.1 µg/mL; MIC (E. coli 377; [3]): 0.78 µg/mL; MIC (P. morganii No. 9; [3]): 0.2 µg/mL; MIC (E. coli JC-2; [3]): 0.01 µg/mL; MIC (Escherichia coli H; [3]): 0.025 µg/mL; MIC (Ps. aeruginosa 25619; [3]): 12.5 µg/mL; MIC (E. coli 73; [3]): 0.39 µg/mL; MIC [2, 3]: 0.78 µg/mL"
